Assay results taken from ChEMBL document CHEMBL5046291, “Evodiamine-Inspired Topoisomerase-Histone Deacetylase Dual Inhibitors: Novel Orally Active Antitumor Agents for Leukemia Therapy” (J Med Chem, 2022).
The source made the active and inactive calls. The rule behind the calls is not given here.

Experiments:
Histone deacetylase 1 [1] = target: T1, Histone deacetylase 1 (Homo sapiens, UniProt Q13547); assay: Inhibition of full-length recombinant human HDAC1 expressed in Baculovirus expression system using Ac-Leu-Gly-Lys(Ac)-AMC as substrate preincubated for 5 mins followed by substrate addition and further incubated for 30 mins by fluorescence based microtiter plate reader assay
T1 sequence (Q13547 whole entry): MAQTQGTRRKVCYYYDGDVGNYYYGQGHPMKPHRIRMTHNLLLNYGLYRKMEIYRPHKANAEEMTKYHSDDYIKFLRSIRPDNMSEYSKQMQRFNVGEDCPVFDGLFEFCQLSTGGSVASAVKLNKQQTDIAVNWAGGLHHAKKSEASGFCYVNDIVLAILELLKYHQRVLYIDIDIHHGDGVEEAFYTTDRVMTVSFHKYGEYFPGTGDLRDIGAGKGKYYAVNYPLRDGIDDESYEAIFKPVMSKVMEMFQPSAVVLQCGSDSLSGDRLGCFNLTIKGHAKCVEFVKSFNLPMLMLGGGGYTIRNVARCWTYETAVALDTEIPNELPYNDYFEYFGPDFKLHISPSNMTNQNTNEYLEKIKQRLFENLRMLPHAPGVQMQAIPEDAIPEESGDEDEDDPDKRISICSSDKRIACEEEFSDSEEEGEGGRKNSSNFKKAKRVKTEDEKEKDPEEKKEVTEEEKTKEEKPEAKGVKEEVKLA

HCT-116 = assay: Antiproliferative activity against human HCT-116 cells assessed as cell growth inhibition incubated for 8 hrs by CCK8 assay; assay type: functional, cell-based; details: HCT-116, 8 h
[2] = target: DNA topoisomerase 2-alpha (Homo sapiens) (UniProt P11388); assay: Inhibition of recombinant Top2 (unknown origin) assessed as inhibition of relaxation of supercoiled pBR322 plasmid DNA at 50 uM incubated for 15 mins by ethidium bromide staining based agarose gel electrophoresis analysis
Chain of DNA topoisomerase 2-alpha (Homo sapiens) (P11388 whole entry): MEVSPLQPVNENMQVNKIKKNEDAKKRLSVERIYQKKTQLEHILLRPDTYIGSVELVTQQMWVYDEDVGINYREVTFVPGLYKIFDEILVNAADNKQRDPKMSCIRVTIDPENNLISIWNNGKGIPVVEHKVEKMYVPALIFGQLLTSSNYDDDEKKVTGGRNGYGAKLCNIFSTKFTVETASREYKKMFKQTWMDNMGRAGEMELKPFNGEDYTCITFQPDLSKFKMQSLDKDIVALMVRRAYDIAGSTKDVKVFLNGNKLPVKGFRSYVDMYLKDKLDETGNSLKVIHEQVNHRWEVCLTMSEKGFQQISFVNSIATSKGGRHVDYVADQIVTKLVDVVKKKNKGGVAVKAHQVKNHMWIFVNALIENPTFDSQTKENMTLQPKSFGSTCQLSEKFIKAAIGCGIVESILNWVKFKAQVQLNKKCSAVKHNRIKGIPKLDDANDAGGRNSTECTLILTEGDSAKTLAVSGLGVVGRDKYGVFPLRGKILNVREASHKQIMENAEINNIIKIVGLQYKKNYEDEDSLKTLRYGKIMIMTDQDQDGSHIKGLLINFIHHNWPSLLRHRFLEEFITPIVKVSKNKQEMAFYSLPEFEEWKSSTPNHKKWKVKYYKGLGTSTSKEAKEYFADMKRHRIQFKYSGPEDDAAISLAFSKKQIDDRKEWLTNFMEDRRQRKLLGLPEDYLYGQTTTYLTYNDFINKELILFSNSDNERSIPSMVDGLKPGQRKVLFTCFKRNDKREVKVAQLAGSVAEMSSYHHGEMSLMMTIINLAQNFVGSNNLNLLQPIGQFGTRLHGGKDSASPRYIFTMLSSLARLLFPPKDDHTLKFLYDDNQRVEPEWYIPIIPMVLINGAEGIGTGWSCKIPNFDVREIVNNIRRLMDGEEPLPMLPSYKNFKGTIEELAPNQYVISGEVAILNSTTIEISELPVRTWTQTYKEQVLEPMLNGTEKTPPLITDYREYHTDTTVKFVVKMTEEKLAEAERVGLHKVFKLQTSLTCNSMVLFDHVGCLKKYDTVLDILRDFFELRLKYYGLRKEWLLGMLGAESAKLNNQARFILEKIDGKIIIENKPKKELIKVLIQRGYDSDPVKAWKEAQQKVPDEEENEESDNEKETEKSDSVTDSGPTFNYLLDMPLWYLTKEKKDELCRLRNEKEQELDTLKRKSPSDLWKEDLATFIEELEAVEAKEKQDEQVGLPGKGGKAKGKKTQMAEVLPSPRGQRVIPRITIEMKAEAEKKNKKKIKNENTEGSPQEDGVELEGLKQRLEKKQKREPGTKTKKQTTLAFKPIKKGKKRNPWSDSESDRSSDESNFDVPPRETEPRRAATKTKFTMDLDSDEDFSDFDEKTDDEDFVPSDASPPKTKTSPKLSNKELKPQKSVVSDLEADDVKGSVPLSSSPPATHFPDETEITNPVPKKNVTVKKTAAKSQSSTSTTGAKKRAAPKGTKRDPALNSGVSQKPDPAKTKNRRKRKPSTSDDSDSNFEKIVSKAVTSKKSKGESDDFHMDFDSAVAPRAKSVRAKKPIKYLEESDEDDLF

[3] = target: T2, DNA topoisomerase 1 (Homo sapiens) (UniProt P11387); assay: Inhibition of recombinant Top1 (unknown origin) assessed as inhibition of relaxation of supercoiled pBR322 plasmid DNA at 50 uM incubated for 15 mins by ethidium bromide staining based agarose gel electrophoresis analysis
T2 sequence (whole entry): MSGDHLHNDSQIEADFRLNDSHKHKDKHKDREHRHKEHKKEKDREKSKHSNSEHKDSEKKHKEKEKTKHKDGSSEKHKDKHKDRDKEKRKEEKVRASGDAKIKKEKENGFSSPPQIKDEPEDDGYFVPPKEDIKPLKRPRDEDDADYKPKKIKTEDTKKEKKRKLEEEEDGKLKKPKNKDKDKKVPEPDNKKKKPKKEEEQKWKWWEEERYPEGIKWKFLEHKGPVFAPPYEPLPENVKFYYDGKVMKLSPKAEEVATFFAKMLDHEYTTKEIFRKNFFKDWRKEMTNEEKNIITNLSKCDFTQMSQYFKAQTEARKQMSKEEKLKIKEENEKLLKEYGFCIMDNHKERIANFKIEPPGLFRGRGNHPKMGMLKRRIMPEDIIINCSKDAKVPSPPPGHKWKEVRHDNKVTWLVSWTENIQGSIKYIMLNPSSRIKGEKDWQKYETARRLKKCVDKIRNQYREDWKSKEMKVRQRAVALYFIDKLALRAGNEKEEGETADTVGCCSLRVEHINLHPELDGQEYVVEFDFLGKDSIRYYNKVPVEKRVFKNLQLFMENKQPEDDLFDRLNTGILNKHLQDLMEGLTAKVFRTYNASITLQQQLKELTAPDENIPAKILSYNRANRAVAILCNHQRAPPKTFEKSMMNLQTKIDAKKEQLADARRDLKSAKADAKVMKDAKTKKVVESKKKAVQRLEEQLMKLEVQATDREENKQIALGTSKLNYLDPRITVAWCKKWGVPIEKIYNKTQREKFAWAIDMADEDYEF

HepG2 = assay: Antiproliferative activity against human HepG2 cells assessed as cell growth inhibition incubated for 8 hrs by CCK8 assay; assay type: functional, cell-based; details: HepG2, 8 h
MCF7 = assay: Antiproliferative activity against human MCF7 cells assessed as cell growth inhibition incubated for 8 hrs by CCK8 assay; assay type: functional, cell-based; details: MCF7, 8 h
[4] = Toxicity in BALB/C mouse xenografted with HEL cells assessed as animal death at 5 to 10 mg/kg, po qd for 14 days consecutively; assay type: organism-based; details: in vivo, 336 h, dose 5-10 mg/kg, time 14 day
HEL [5] = assay: Induction of cell cycle arrest in HEL cells assessed as change in S-phase ratio at 0.1 uM incubated for 48 hrs by PI staining based flow cytometry relative to control; assay type: functional, Homo sapiens
HEL [6] = assay: Antitumor activity against HEL cells xenografted in BALB/C mouse assessed as tumor growth inhibition at 10 mg/kg, po qd for 14 days consecutively by caliper method relative to control; assay type: functional, Homo sapiens; details: 336 h, time 14 day, read-out: TGI
Histone deacetylase 2 = Histone deacetylase 2 (Homo sapiens, UniProt Q92769); assay: In vivo inhibition of HDAC2 in HEL cells xenografted in BALB/C mouse assessed as upregulation of acetyl-H4 levels at 5 to 10 mg/kg by immunohistochemical staining method; assay type: functional, organism-based; details: dose 5-10 mg/kg
Chain of Histone deacetylase 2 (Q92769 whole entry): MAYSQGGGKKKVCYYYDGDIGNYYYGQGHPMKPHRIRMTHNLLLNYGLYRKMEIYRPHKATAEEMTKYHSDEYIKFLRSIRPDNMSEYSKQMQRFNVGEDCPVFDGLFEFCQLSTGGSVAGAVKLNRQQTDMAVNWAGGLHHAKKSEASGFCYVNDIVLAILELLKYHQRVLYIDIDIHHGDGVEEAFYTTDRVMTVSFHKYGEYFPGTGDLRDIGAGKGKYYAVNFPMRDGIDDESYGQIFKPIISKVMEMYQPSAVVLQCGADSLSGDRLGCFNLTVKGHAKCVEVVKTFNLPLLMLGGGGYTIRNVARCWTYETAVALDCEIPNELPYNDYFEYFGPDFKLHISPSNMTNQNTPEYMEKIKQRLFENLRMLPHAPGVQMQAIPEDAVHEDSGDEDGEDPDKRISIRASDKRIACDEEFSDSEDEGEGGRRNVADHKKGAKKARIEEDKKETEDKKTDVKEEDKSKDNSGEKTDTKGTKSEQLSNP

HEL [7] = assay: Induction of apoptosis in HEL cells assessed as apoptotic cells at 0.5 uM incubated for 48 hrs by annexin V-FITC/PI staining based flow cytometry (reference value: 4.23%); assay type: functional, Homo sapiens
[8] = target: DNA topoisomerase 2-alpha (Homo sapiens) (UniProt P11388); assay: Inhibition of recombinant Top2 (unknown origin) assessed as inhibition of relaxation of supercoiled pBR322 plasmid DNA at 100 uM incubated for 15 mins by ethidium bromide staining based agarose gel electrophoresis analysis
Histone deacetylase 1 [9] = target: T1, Histone deacetylase 1; assay: Inhibition of HDAC1 in HEL cells assessed as increase in acetyl-H3 levels at 20 to 100 nM incubated for 24 hrs by western blot analysis; assay type: cell-based; details: dose 20-100 nM
HEL [10] = assay: Antitumor activity against HEL cells xenografted in BALB/C mouse assessed as T/C value at 10 mg/kg, po qd for 14 days consecutively by caliper method relative to control; assay type: functional, Homo sapiens; details: time 14 day
[11] = target: T2, DNA topoisomerase 1 (Homo sapiens); assay: Inhibition of recombinant Top1 (unknown origin) assessed as inhibition of relaxation of supercoiled pBR322 plasmid DNA at 100 uM incubated for 15 mins by ethidium bromide staining based agarose gel electrophoresis analysis
[12] = target: Histone deacetylase (Homo sapiens) (UniProt Q13547+O15379+Q9UBN7+Q92769+Q9UQL6+Q8WUI4+Q9BY41+Q96DB2+P56524+Q9UKV0+Q969S8); assay: In vivo inhibition of HDAC in HEL cells xenografted in BALB/C mouse assessed as upregulation of caspase-9 levels at 5 to 10 mg/kg by immunohistochemical staining method; assay type: functional, organism-based; details: dose 5-10 mg/kg
Histone deacetylase 8 = target: T3, Histone deacetylase 8 (Homo sapiens, UniProt Q9BY41); assay: Inhibition of full-length recombinant C-terminal His-tagged human HDAC8 expressed in baculovirus infected Sf9 insect cells using Ac-Leu-Gly-Lys(Tfa)-AMC as substrate preincubated for 5 mins followed by substrate addition and further incubated for 30 mins by fluorescence based microtiter plate reader assay
T3 sequence (Q9BY41 whole entry): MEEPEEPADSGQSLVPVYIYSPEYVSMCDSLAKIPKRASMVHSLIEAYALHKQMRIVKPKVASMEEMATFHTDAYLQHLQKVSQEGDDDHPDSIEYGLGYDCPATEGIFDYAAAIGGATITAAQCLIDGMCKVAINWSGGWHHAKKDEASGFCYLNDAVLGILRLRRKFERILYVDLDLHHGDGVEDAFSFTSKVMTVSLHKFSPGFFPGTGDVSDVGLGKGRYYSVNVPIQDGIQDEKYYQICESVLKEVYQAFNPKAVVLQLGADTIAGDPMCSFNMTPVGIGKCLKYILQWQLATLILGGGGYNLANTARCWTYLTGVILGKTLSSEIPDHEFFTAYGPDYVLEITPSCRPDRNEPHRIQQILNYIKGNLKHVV

K562 = assay: Antiproliferative activity against human K562 cells assessed as cell growth inhibition incubated for 8 hrs by CCK8 assay; assay type: functional, cell-based; details: K562, 8 h
HEL [13] = assay: Induction of cell cycle arrest in HEL cells assessed as change in S-phase ratio at 0.02 uM incubated for 48 hrs by PI staining based flow cytometry relative to control; assay type: functional, Homo sapiens
A549 = assay: Antiproliferative activity against human A549 cells assessed as cell growth inhibition incubated for 8 hrs by CCK8 assay; assay type: functional, cell-based; details: A549, 8 h

With CN1c2ccc(F)cc2C(=O)N2CCc3c([nH]c4ccc(OCc5ccc(/C=C/C(=O)NO)cc5)cc34)C21 (stereo not given) the IC50 (Histone deacetylase 1 [1]) was 36 nM, the IC50 (HCT-116) was 210 nM and the inhibition [2] was “Active”. The inhibition [3] was “Active”, the IC50 (HepG2) was 260 nM and the IC50 (MCF7) was greater than 2000 nM. For the same compound, the Activity [4] was “Non-Toxic”, the Activity (HEL [5]) was 15.4% and the inhibition in vivo at 10 mg/kg (HEL [6]) was 68.5%. For the same compound, the inhibition (Histone deacetylase 2) was “Active”, the Activity (HEL [7]) was 76.45% and the inhibition [8] was “Active”. The inhibition (Histone deacetylase 1 [9]) was “Active”, the T/C (HEL [10]) was 25.5% and the inhibition [11] was “Active”. For the same compound, the inhibition [12] was “Active”, the IC50 (Histone deacetylase 8) was 9800 nM and the IC50 (K562) was 350 nM. It also gave an Activity (HEL [13]) of 9.8% and an IC50 (A549) of 680 nM.
